Experimental data as given in patent publication US20110230476A1, “PI3 KINASE INHIBITORS AND USES THEREOF” (AVILA THERAPEUTICS, INC., priority 2009, published 2011).
Entries after “also recorded” stand apart in the source; their conditions may differ.

Key:
PI3Kα [1] = molecular target: T1, PI3Kα (Homo sapiens, UniProt P42336); assay: Mass spectrometry of intact PI3Kα (Millipore, 14-602), 1 hr incubation; format: binding; parameters: purchased Millipore 14-602; conditions: 10× fold excess of compound, MALDI
Experimental: (§1) Mass Spectrometry for PI3K
Aliquots (5 μl) of the samples were diluted with 15 μl of 0.2% TFA prior to micro C4 ZipTipping directly onto the MALDI target using Sinapinic acid as the desorption matrix (10 mg/ml in 0.1% TFA:Acetonitrile 50:50).
Target sequence in this assay (P42336 whole entry): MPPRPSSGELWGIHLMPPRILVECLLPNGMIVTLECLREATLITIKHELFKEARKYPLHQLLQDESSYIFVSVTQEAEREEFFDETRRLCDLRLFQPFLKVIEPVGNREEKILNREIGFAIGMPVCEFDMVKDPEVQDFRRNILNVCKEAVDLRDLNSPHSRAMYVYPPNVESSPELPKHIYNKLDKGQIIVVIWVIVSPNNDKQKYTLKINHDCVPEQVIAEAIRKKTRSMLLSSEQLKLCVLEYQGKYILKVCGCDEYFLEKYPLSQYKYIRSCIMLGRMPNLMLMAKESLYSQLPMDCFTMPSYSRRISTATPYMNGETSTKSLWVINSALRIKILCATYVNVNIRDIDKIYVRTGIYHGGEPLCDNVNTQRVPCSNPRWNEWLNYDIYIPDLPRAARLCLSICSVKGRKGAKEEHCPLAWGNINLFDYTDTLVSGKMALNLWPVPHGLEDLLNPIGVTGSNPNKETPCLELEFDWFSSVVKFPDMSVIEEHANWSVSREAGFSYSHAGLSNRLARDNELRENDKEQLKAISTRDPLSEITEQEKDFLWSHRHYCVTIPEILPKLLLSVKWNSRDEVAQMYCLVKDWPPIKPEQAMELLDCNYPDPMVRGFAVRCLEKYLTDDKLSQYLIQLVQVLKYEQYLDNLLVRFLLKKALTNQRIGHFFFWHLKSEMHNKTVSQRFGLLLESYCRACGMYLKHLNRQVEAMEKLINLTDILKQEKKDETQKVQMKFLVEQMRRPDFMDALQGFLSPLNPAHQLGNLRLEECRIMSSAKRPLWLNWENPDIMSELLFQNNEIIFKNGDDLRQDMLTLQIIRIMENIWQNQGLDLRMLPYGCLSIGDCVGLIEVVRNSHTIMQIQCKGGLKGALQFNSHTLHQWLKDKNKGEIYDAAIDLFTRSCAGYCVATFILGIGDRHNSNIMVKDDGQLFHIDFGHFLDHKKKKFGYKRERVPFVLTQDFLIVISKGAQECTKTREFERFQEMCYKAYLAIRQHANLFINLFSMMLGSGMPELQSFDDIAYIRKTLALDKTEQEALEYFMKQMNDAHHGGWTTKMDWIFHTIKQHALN
Target sequence in this assay (P27986 whole entry partner): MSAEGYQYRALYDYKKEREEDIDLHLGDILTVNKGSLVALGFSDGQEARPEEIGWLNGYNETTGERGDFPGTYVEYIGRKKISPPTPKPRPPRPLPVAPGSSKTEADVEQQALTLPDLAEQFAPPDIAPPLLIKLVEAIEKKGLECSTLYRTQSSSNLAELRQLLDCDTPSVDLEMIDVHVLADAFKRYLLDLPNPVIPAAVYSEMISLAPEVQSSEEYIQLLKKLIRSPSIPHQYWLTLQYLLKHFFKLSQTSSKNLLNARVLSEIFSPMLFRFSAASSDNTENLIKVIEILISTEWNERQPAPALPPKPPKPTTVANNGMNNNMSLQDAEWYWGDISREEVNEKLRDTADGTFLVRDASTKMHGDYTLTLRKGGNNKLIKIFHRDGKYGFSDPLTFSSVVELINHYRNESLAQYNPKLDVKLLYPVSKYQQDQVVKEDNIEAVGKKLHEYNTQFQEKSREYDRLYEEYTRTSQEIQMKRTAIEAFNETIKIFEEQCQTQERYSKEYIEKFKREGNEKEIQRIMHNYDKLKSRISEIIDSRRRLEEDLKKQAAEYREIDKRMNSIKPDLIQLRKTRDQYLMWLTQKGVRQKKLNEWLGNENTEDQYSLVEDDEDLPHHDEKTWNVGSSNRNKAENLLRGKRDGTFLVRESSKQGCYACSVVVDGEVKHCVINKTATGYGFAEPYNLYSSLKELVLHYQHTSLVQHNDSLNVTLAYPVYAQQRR

PI3Kα [2] = molecular target: T1, PI3Kα; assay: Trypsin digest and MS-MS analysis of compound-treated PI3Kα; format: binding; parameters: purchased Millipore 14-602; conditions: in-gel trypsin digest
Experimental: (§2) The PI3Kα protein band was then excised and subjected to an in-gel trypsin digest by reducing the protein with DTT, alkylating the thiols with iodoacetamide, and then incubating the protein gel band with trypsin overnight in a 37° C. water bath. The digest was then stopped by addition of trifluoroacetic acid, and peptides were removed from gel band by sonicating with increasing amounts of acetonitrile (0%, 30%, & 60%). Peptides were then purified using C18 ziptips, spotted on the MALDI target plate with α-cyano-4-hydroxycinnamic acid as the desorption matrix (10 mg/ml in 0.1% TFA:Acetonitrile 50:50), and analyzed in reflectron mode.
as §2, with “trifluoro acetic” for “trifluoroacetic”
Target sequence in this assay (P42336 whole entry): as the sequence (P42336 whole entry) above
Target sequence in this assay (P27986 whole entry partner): as the sequence (P27986 whole entry partner) above

SK-OV-3 cells = assay: SK-OV-3 cell proliferation assay; format: cell-based; conditions: Homo sapiens; SK-OV-3 proliferation, 72 hours, Cell Titer Glo
Experimental: SK-OV-3 Cell Proliferation Assay
For the SK-OV-3 proliferation Assay, 5000 cells per well were plated in Growth Media (DMEM, 10% FBS, 1% 1-glutamine, 1% penicillin/streptomycin) in 96 well plates. The following day, compounds were added to duplicate wells at concentrations of 10 uM and 3-fold dilutions down to 40 nM. The plates were returned to the incubator for 72 hours and then the assays were developed using Cell Titer Glo (Promega, Madison, Wis.) according to manufacturer's instructions.

PI3Kα [3] = molecular target: T1, PI3Kα; assay: Mass spectrometry of intact PI3Kα (Johns Hopkins), 3 hr incubation; format: binding; parameters: Johns Hopkins; conditions: 10× fold excess of compound, MALDI
Experimental: as §1
Target sequence in this assay (P42336 whole entry): as the sequence (P42336 whole entry) above
Target sequence in this assay (P27986 322-600 partner limits assumed): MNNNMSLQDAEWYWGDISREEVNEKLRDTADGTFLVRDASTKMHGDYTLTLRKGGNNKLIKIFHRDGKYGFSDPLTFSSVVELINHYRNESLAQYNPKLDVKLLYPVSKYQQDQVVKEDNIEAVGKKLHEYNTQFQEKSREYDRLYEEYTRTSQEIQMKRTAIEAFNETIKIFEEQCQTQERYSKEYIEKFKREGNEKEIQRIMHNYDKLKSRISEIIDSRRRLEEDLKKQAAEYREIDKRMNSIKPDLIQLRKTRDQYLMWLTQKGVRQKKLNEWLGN
Intact PI3Kα (Johns Hopkins) was incubated for 3 hr at a 10× fold excess of II-a-45 or II-a-49 to protein. Aliquots (3 μL) of the samples were diluted with 10 μL of 0.1% TFA prior to micro C4 ZipTipping directly onto the MALDI target using Sinapinic acid as the desorption matrix (10 mg/ml in 0.1% TFA:Acetonitrile 50:50).

PI3Kα (p110α/p85α) = molecular target: T2, PI3Kα (p110α/p85α) (Homo sapiens, UniProt P42336); assay: HTRF assay, potency against active PI3Kα; format: biochemical; conditions: HTRF; [ATP]=50 μM, [di-C8-PIP2]=10 μM; 30 min pre-incubation; read-out: PI3Kα Inhibition
T2 construct: purchased BPS Bioscience (San Diego, Calif.) or Millipore (Billerica, Mass.)
Outline: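 Active p110/p85α lipid kinase reactions were started with ATP and run 30-60 minutes at 25 °C, then stopped and developed with HTRF detection mix. HTRF ratio converted to % inhibition against ±enzyme controls; IC50 from log[inhibitor] vs response, variable slope.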

T2 sequence (P42336 whole entry): as the sequence (P42336 whole entry) above
T2 sequence (P27986 whole entry partner): as the sequence (P27986 whole entry partner) above

CC(C)=CC(=O)CCC(=O)N1CCN(Cc2cc3nc(-c4cccc5[nH]ncc45)nc(N4CCOCC4)c3s2)CC1 [II-a-3, 1-(4-((2-(1H-indazol-4-yl)-4-morpholinothieno[3,2-d]pyrimidin-6-yl)methyl)piperazin-1-yl)-6-methylhept-5-ene-1,4-dione]
covalent modification of PI3Kα (PI3Kα [1]): complete modification; also recorded: covalent modification | site on PI3Kα that is covalently modified (PI3Kα [2]): Cys-862; also recorded: peptide ^853NSHTIMQIQCK^863

C/C=C/C(=O)CCC(=O)N1CCN(Cc2cc3nc(-c4cccc5[nH]ncc45)nc(N4CCOCC4)c3s2)CC1 [II-a-36, (E)-1-(4-((2-(1H-indazol-4-yl)-4-morpholinothieno[3,2-d]pyrimidin-6-yl)methyl)piperazin-1-yl)hept-5-ene-1,4-dione]
EC50 (SK-OV-3 cells): 100 to 1000 nM | covalent modification of PI3Kα (PI3Kα [3]): completely modify | IC50 (PI3Kα (p110α/p85α)): < 10 nM
